Measurements from patent US20070225351A1, “Methods and compositions for controlling body weight and appetite” (priority 2002, published 2007).
Like-named read-outs stand apart in the source and are kept apart here.

Assays:
[1] = Toxicokinetic evaluation in rats; settings: rat, in vivo
Description: For toxicokinetic evaluation, all animals were observed twice daily for mortality and moribundity. Blood samples were collected from three animals/sex/group at 0 (pre-dose), 1, 2, 4, 8 and 24 hours after dose administration on study days 0 and 87. All toxicokinetic animals were euthanized and discarded following the final blood collection (study day 88).

[2] = in vivo; assay type: in vivo; settings: both sexes, beagle, dog, in vivo, po
Description: Eighteen male and eighteen female beagle dogs were received from Ridglan Farms, Mt. Horeb, Wis. […] Each group consisted of four males and four females. All animals/sex/group were scheduled for the primary necropsy at the end of the 13-week treatment period.
The animals were observed twice daily for mortality and moribundity. Clinical examinations were performed daily at the time of dosing and approximately 1-2 and approximately 3 hours following dose administration. Detailed physical examinations were performed weekly. Clinical pathology evaluations (hematology, serum chemistry and urinalysis) were performed prior to the initiation of dose administration (study week-1) and prior to the scheduled necropsy (study week 13). Individual body weights were recorded weekly, beginning approximately two weeks prior to test article administration (study week-2). Mean body weights and mean body weight changes were calculated for each corresponding interval. Final body weights (fasted) were recorded prior to the scheduled necropsy. […] Gross lesions were also examined from the 2.0 and 6.0 mg/kg/day groups.

[3] = Effect on weight gain in male DIO rats; assay type: in vivo, rat
Description: Male DIO rats, weighing approximately 200 g each were housed singly in plastic cages with wood litter and free access to food and water in a vivarium maintained under a 12 hour light/dark cycle at 21±3°. After an acclimatization period of 1 week, the studies were initiated. During the study period, access to food and water was restricted for 3 hours per day (1000 to 1300 hrs). On day 0, the amount of food and water consumed was measured in all rats in the absence of any treatment. […] A cannabinoid receptor blocker, termed AM251, and an enantiomer of fenfluramine, termed d-FEN1, both of which are known to regulate the melanocortin pathways in animals, were also administered for comparison purposes. Test compounds or vehicle were then orally administered in a volume of 5 mL/kg 60 minutes before access to food and water (0900 hrs). Body weight was measured prior to and 18 hours after administration of the various compounds.

[4] = female, Crl:CD(SD)IGS BR (Sprague-Dawley), po, 60 mg/kg/day
[5] = female, Crl:CD(SD)IGS BR, po, 10 mg/kg/day
[6] = female, Crl:CD(SD)IGS BR, po, 25 mg/kg/day
[7] = male, Crl:CD(SD)IGS BR, po, 10 mg/kg/day
[8] = male, Crl:CD(SD)IGS BR, po, 25 mg/kg/day
[9] = male, Crl:CD(SD)IGS BR, po, 60 mg/kg/day

Structure (SMILES): Clc1ccc([C@]23CNCC2C3)cc1Cl (single isomer, unassigned; (+)) [(+)-1-(3,4-dichlorophenyl)-3-azabicyclo[3.1.0]hexane]
- AUC(0-t) ([1]; Crl:CD(SD)IGS BR (Sprague-Dawley), male rats, 10 mg/kg/day oral, Day 87, read-out: AUC0-24 h): 8130 ng·h/mL
- AUC(0-t) ([1]; Crl:CD(SD)IGS BR, female rats, 10 mg/kg/day oral, Day 87, read-out: AUC0-24 h): 14400 ng·h/mL
- AUC0-24 h [1, 4]: 88137 ng·h/mL
- AUC(0-t) ([1]; female, Crl:CD(SD)IGS BR (Sprague-Dawley), po, 60 mg/kg/day, AUC0-24 h): 54400 ng·h/mL
- Cmax [1, 4]: 6600 ng/mL
- Tmax [1, 4]: 2 h
- AUC(0-t) ([1]; female, Crl:CD(SD)IGS BR, po, 10 mg/kg/day, AUC0-24 h): 10900 ng·h/mL
- Cmax [1, 5]: 1390 ng/mL
- Tmax [1, 5]: 1 h
- AUC0-24 h [1, 6]: 30205 ng·h/mL
- AUC(0-t) ([1]; female, Crl:CD(SD)IGS BR, po, 25 mg/kg/day, AUC0-24 h): 31000 ng·h/mL
- Cmax [1, 6]: 2810 ng/mL
- Tmax [1, 6]: 2 h
- AUC(0-t) ([1]; male, Crl:CD(SD)IGS BR (Sprague-Dawley), po, 10 mg/kg/day, AUC0-24 h): 5940 ng·h/mL
- Cmax [1, 7]: 863 ng/mL
- Tmax [1, 7]: 2 h
- AUC0-24 h [1, 8]: 21975 ng·h/mL
- AUC(0-t) ([1]; male, Crl:CD(SD)IGS BR, po, 25 mg/kg/day, AUC0-24 h): 17400 ng·h/mL
- Cmax [1, 8]: 2360 ng/mL
- Tmax [1, 8]: 2 h
- AUC0-24 h [1, 9]: 60093 ng·h/mL
- AUC(0-t) ([1]; male, Crl:CD(SD)IGS BR, po, 60 mg/kg/day, AUC0-24 h): 36300 ng·h/mL
- Cmax [1, 9]: 3680 ng/mL
- Tmax [1, 9]: 1 h
- NOAEL at 13 weeks [2]: 6 mg/kg/day
- body weight gain compared to vehicle ([3]; oral 2, 4, 6, 20 and 40 mg/kg, 18 hours after administration): dose-dependently suppressed this body weight gain
- effect on body weight compared with AM251 or d-FEN1 ([3]; oral doses of 20 and 40 mg/kg, 18 hours): significantly more effective than either AM251 or d-FEN1
